Experimental data published in the supplement of paper PMC10307832.

Experiments:
Assay in all cases: relative viability (nuclei count vs DMSO), 5 days (fraction); higher = more cells survive
A-427 = test system: A-427
In short: (§1)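 Values are medians from duplicate plates. Each reflects relative viability, defined as the nuclei count of treated wells over that of vehicle wells. Lung cancer cell lines in 1536-well plates were pin-tool dosed one day after seeding with one drug alone or with a fixed anchor-drug dose plus five library-drug doses (not always all listed) in √10 steps, then fixed, stained and imaged at 4× after 5 days.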

COR-L 105 = test system: COR-L 105
In short: as §1

ChaGo-K-1 = test system: ChaGo-K-1
In short: as §1

EKVX = test system: EKVX
In short: as §1

EMC-BAC-2 = test system: EMC-BAC-2
In short: as §1

EPLC-272H = test system: EPLC-272H
In short: as §1

HARA = test system: HARA
In short: as §1

HCC-44 = test system: HCC-44
In short: as §1

LK-2 = test system: LK-2
In short: as §1

LU99A = test system: LU99A
In short: as §1

NCI-H1650 = test system: NCI-H1650
In short: as §1

NCI-H1734 = test system: NCI-H1734
In short: as §1

NCI-H1755 = test system: NCI-H1755
In short: as §1

NCI-H1792 = test system: NCI-H1792
In short: as §1

NCI-H1993 = test system: NCI-H1993
In short: as §1

NCI-H2405 = test system: NCI-H2405
In short: as §1

NCI-H460 = test system: NCI-H460
In short: as §1

NCI-H596 = test system: NCI-H596
In short: as §1

NCI-H647 = test system: NCI-H647
In short: as §1

RERF-LC-KJ = test system: RERF-LC-KJ
In short: as §1

CN1CCN(CCOc2cc(OC3CCOCC3)c3c(Nc4c(Cl)ccc5c4OCO5)ncnc3c2)CC1 [Saracatinib] + CC1(C)CCC(c2ccc(Cl)cc2)=C(CN2CCN(c3ccc(C(=O)NS(=O)(=O)c4ccc(N[C@H](CCN5CCOCC5)CSc5ccccc5)c(S(=O)(=O)C(F)(F)F)c4)cc3)CC2)C1 [Navitoclax] (partner 0.5 µM)
relative viability (A-427; first compound 0.02 µM): 0.999 | relative viability (A-427; first compound 0.2 µM): 0.854 | relative viability (A-427; first compound 0.6325 µM): 1 | relative viability (A-427; first compound 2 µM): 0.918 | relative viability (COR-L 105; first compound 0.02 µM): 0.795 | relative viability (COR-L 105; first compound 0.2 µM): 0.764 | relative viability (COR-L 105; first compound 0.6325 µM): 0.578 | relative viability (COR-L 105; first compound 2 µM): 0.474 | relative viability (ChaGo-K-1; first compound 0.02 µM): 1.15 | relative viability (ChaGo-K-1; first compound 0.2 µM): 0.68 | relative viability (ChaGo-K-1; first compound 0.6325 µM): 1.21 | relative viability (ChaGo-K-1; first compound 2 µM): 0.542 | relative viability (EKVX; first compound 0.02 µM): 0.902 | relative viability (EKVX; first compound 0.2 µM): 0.88 | relative viability (EKVX; first compound 0.6325 µM): 0.903 | relative viability (EKVX; first compound 2 µM): 0.357 | relative viability (EMC-BAC-2; first compound 0.02 µM): 1.15 | relative viability (EMC-BAC-2; first compound 0.2 µM): 1.16 | relative viability (EMC-BAC-2; first compound 0.6325 µM): 1.15 | relative viability (EMC-BAC-2; first compound 2 µM): 0.993 | relative viability (EPLC-272H; first compound 0.02 µM): 1.19 | relative viability (EPLC-272H; first compound 0.2 µM): 0.976 | relative viability (EPLC-272H; first compound 0.6325 µM): 1.19 | relative viability (EPLC-272H; first compound 2 µM): 0.999 | relative viability (HARA; first compound 0.02 µM): 1.2 | relative viability (HARA; first compound 0.6325 µM): 1.1 | relative viability (HARA; first compound 2 µM): 0.984 | relative viability (HCC-44; first compound 0.02 µM): 1.06 | relative viability (HCC-44; first compound 0.2 µM): 0.829 | relative viability (HCC-44; first compound 0.6325 µM): 1.08 | relative viability (HCC-44; first compound 2 µM): 1.04 | relative viability (LK-2; first compound 0.02 µM): 0.795 | relative viability (LK-2; first compound 0.2 µM): 0.781 | relative viability (LK-2; first compound 0.6325 µM): 0.71 | relative viability (LK-2; first compound 2 µM): 0.489 | relative viability (LU99A; first compound 0.02 µM): 0.818 | relative viability (LU99A; first compound 0.2 µM): 0.629 | relative viability (LU99A; first compound 0.6325 µM): 0.847 | relative viability (LU99A; first compound 2 µM): 0.865 | relative viability (NCI-H1650; first compound 0.02 µM): 1.17 | relative viability (NCI-H1650; first compound 0.2 µM): 1.1 | relative viability (NCI-H1650; first compound 0.6325 µM): 0.983 | relative viability (NCI-H1650; first compound 2 µM): 0.981 | relative viability (NCI-H1734; first compound 0.02 µM): 0.854 | relative viability (NCI-H1734; first compound 0.6325 µM): 0.767 | relative viability (NCI-H1734; first compound 2 µM): 0.697 | relative viability (NCI-H1755; first compound 0.02 µM): 0.981 | relative viability (NCI-H1755; first compound 0.2 µM): 0.681 | relative viability (NCI-H1755; first compound 0.6325 µM): 0.874 | relative viability (NCI-H1755; first compound 2 µM): 0.588 | relative viability (NCI-H1792; first compound 0.02 µM): 0.635 | relative viability (NCI-H1792; first compound 0.2 µM): 0.489 | relative viability (NCI-H1792; first compound 0.6325 µM): 0.723 | relative viability (NCI-H1792; first compound 2 µM): 0.583 | relative viability (NCI-H1993; first compound 0.02 µM): 0.848 | relative viability (NCI-H1993; first compound 0.2 µM): 0.78 | relative viability (NCI-H1993; first compound 2 µM): 0.769 | relative viability (NCI-H2405; first compound 0.02 µM): 0.816 | relative viability (NCI-H2405; first compound 0.2 µM): 0.874 | relative viability (NCI-H2405; first compound 0.6325 µM): 0.401 | relative viability (NCI-H2405; first compound 2 µM): 0.316 | relative viability (NCI-H460; first compound 0.02 µM): 1.16 | relative viability (NCI-H460; first compound 0.2 µM): 0.457 | relative viability (NCI-H460; first compound 0.6325 µM): 1.22 | relative viability (NCI-H460; first compound 2 µM): 0.813 | relative viability (NCI-H596; first compound 0.02 µM): 0.952 | relative viability (NCI-H596; first compound 0.2 µM): 0.711 | relative viability (NCI-H596; first compound 0.6325 µM): 0.925 | relative viability (NCI-H596; first compound 2 µM): 0.682 | relative viability (NCI-H647; first compound 0.02 µM): 1.15 | relative viability (NCI-H647; first compound 0.2 µM): 0.959 | relative viability (NCI-H647; first compound 0.6325 µM): 1.18 | relative viability (NCI-H647; first compound 2 µM): 0.764 | relative viability (RERF-LC-KJ; first compound 0.02 µM): 0.817 | relative viability (RERF-LC-KJ; first compound 0.2 µM): 1.17 | relative viability (RERF-LC-KJ; first compound 0.6325 µM): 0.959 | relative viability (RERF-LC-KJ; first compound 2 µM): 0.934
